Source: patent publication US20260026504A1, “COMPOUND […] STRUCTURE, APPLICATION, AND INSECTICIDE” (Anhui Shengfeng Biochemical Co., Ltd, priority 2022, published 2026)
Read-outs that look alike come from different tables or passages of the source.

System: diamondback moth (Plutella xylostella) second instar larvae
Assay: Toxicity to diamondback moth larvae by the leaf-dipping method
Type: in vivo
Settings: corrected mortality grade, 1 ppm, cabbage leaf dip; for mortality at 1 ppm: Plutella xylostella, in Brassica oleracea, foliar
Description: Determining the toxicity activity of part of compounds on diamondback moth (Plutella xylostella) instar larvae by the leafdipping method.
The test agents of the compounds in Table 2 were weighed out accurately with an electronic analytical balance, and the original drug was dissolved in a 10000 ppm solution with dimethyl sulfoxide as the solvent and then diluted with 0.1% of Triton solution to 1 ppm and 0.25 ppm solutions. Taking the cabbage not contacted with the liquid medicine, and cutting the leaves into 6 cm-diameter circular leaves. Soaking the leaves in the prepared liquid medicine for 15 seconds, taking out and drying, and placing the leaves into 6 cm culture dishes, wherein 1 cabbage leaf is placed in each culture dish. The same standard second instar larvae were placed in petri dishes with 10 heads per dish and 4 replicates per concentration for a total of 40 heads. After inoculation, the culture dish is placed in a constant-temperature culture chamber with the temperature of 25±1° C. and the illumination period of 16 (D) to 8 (L) h, and the number of dead and live larvae is investigated after 48 h and 72 h. A blank and a control of compound K1 and compound K2 were also provided.
The mortality is calculated according to the following formula 1, then the corrected mortality is calculated according to the formula 2, and finally the classification is carried out according to the corrected mortality value and the rating standard shown in the table 2, and the specific results are shown in the tables 3 and 4.
mortality %=(number of dead insects/total number of insects)×100% Equation 1;
corrected mortality %=[(treatment-control mortality)/(1-control mortality)]×100% Equation 2.

[1] = 48 h, 48 h, read-out: mortality (1 ppm) 48 h
[2] = 72 h, 72 h, read-out: mortality (1 ppm) 72 h

Cc1cc(C2=NOC(c3cc(Cl)cc(Cl)c3)(C(F)(F)F)C2)ccc1C(=O)Nc1cn[nH]c1 (stereo not drawn) [Compound 1]
mortality at 1 ppm [1]: 50 to 70%
mortality at 1 ppm [2]: 70 to 80%

Cc1cc(C2=NOC(c3cc(Cl)cc(Cl)c3)(C(F)(F)F)C2)ccc1C(=O)Nc1cnn(C)c1 (stereo not drawn) [Compound 2]
mortality at 1 ppm [1]: 80 to 90%
mortality at 1 ppm [2]: 100%

CCn1cc(NC(=O)c2ccc(C3=NOC(c4cc(Cl)cc(Cl)c4)(C(F)(F)F)C3)cc2C)cn1 (stereo not drawn) [Compound 3]
mortality at 1 ppm [1]: 70 to 80%
mortality at 1 ppm [2]: 90 to 100%

CCCn1cc(NC(=O)c2ccc(C3=NOC(c4cc(Cl)cc(Cl)c4)(C(F)(F)F)C3)cc2C)cn1 (stereo not drawn) [Compound 4]
mortality at 1 ppm [1]: 50 to 70%
mortality at 1 ppm [2]: 50 to 70%

Cc1cc(C2=NOC(c3cc(Cl)cc(Cl)c3)(C(F)(F)F)C2)ccc1C(=O)Nc1cnn(C(C)C)c1 (stereo not drawn) [Compound 5]
mortality at 1 ppm [1]: 90 to 100%
mortality at 1 ppm [2]: 100%

Cc1cc(C2=NOC(c3cc(Cl)cc(Cl)c3)(C(F)(F)F)C2)ccc1C(=O)Nc1cnn(CC(F)(F)F)c1 (stereo not drawn) [Compound 7]
mortality at 1 ppm [2]: 80 to 90%

Cc1cc(C2=NOC(c3cc(Cl)cc(Cl)c3)(C(F)(F)F)C2)ccc1C(=O)Nc1cnn(CC(F)F)c1 (stereo not drawn) [Compound 8]
mortality at 1 ppm [1]: 50 to 70%
mortality at 1 ppm [2]: 80 to 90%

Cc1cc(C2=NOC(c3cc(Cl)cc(Cl)c3)(C(F)(F)F)C2)ccc1C(=O)Nc1cnn(CCF)c1 (stereo not drawn) [Compound 9]
mortality at 1 ppm [2]: 80 to 90%

Cc1cc(C2=NOC(c3cc(Cl)cc(Cl)c3)(C(F)(F)F)C2)ccc1C(=O)Nc1cnn(CCC(F)(F)F)c1 (stereo not drawn) [Compound 10]
mortality at 1 ppm [1]: 50 to 70%
mortality at 1 ppm [2]: 100%

Cc1cc(C2=NOC(c3cc(Cl)cc(Cl)c3)(C(F)(F)F)C2)ccc1C(=O)Nc1cnn(CCCF)c1 (stereo not drawn) [Compound 11]
mortality at 1 ppm [1]: 50 to 70%
mortality at 1 ppm [2]: 100%

COCn1cc(NC(=O)c2ccc(C3=NOC(c4cc(Cl)cc(Cl)c4)(C(F)(F)F)C3)cc2C)cn1 (stereo not drawn) [Compound 12]
mortality at 1 ppm [1]: 50 to 70%
mortality at 1 ppm [2]: 50 to 70%

CCC(C)n1cc(NC(=O)c2ccc(C3=NOC(c4cc(Cl)cc(Cl)c4)(C(F)(F)F)C3)cc2C)cn1 (stereo not drawn) [Compound 16]
mortality at 1 ppm [2]: 70 to 80%

Cc1cc(C2=NOC(c3cc(Cl)cc(Cl)c3)(C(F)(F)F)C2)ccc1C(=O)Nc1cnn(C2CC2)c1 (stereo not drawn) [Compound 23]
mortality at 1 ppm [1]: 100%
mortality at 1 ppm [2]: 100%

Cc1cc(C2=NOC(c3cc(Cl)cc(Cl)c3)(C(F)(F)F)C2)ccc1C(=O)Nc1cnn(C2CCC2)c1 (stereo not drawn) [Compound 24]
mortality at 1 ppm [2]: 50 to 70%

C=CCn1cc(NC(=O)c2ccc(C3=NOC(c4cc(Cl)cc(Cl)c4)(C(F)(F)F)C3)cc2C)cn1 (stereo not drawn) [Compound 27]
mortality at 1 ppm [1]: 50 to 70%
mortality at 1 ppm [2]: 70 to 80%

C#CCn1cc(NC(=O)c2ccc(C3=NOC(c4cc(Cl)cc(Cl)c4)(C(F)(F)F)C3)cc2C)cn1 (stereo not drawn) [Compound 28]
mortality at 1 ppm [1]: 80 to 90%
mortality at 1 ppm [2]: 100%

Cc1cc(C2=NOC(c3cc(Cl)cc(Cl)c3)(C(F)(F)F)C2)ccc1C(=O)Nc1cnn(CC2CC2)c1 (stereo not drawn) [Compound 30]
mortality at 1 ppm [2]: 50 to 70%

Cc1cc(C2=NOC(c3cc(Cl)cc(Cl)c3)(C(F)(F)F)C2)ccc1C(=O)Nc1cnn(CC2CCCCC2)c1 (stereo not drawn) [Compound 33]
mortality at 1 ppm [2]: 50 to 70%

COC(Cn1cc(NC(=O)c2ccc(C3=NOC(c4cc(Cl)cc(Cl)c4)(C(F)(F)F)C3)cc2C)cn1)OC (stereo not drawn) [Compound 36]
mortality at 1 ppm [2]: 50 to 70%

Cc1cc(C2=NOC(c3cc(Cl)cc(Cl)c3)(C(F)(F)F)C2)ccc1C(=O)Nc1cnn(C2CCOC2)c1 (stereo not drawn) [Compound 39]
mortality at 1 ppm [2]: 50 to 70%

Cc1cc(C2=NOC(c3cc(Cl)cc(Cl)c3)(C(F)(F)F)C2)ccc1C(=O)Nc1cnn(C2CCOCC2)c1 (stereo not drawn) [Compound 40]
mortality at 1 ppm [1]: 50 to 70%
mortality at 1 ppm [2]: 50 to 70%

Cc1cc(C2=NOC(c3cc(Cl)cc(Cl)c3)(C(F)(F)F)C2)ccc1C(=O)Nc1cnn(-c2ccccc2F)c1 (stereo not drawn) [Compound 42]
mortality at 1 ppm [2]: 50 to 70%

Cc1cc(C2=NOC(c3cc(Cl)cc(Cl)c3)(C(F)(F)F)C2)ccc1C(=O)Nc1cnn(-c2ccccc2Br)c1 (stereo not drawn) [Compound 44]
mortality at 1 ppm [2]: 50 to 70%

Cc1cc(C2=NOC(c3cc(Cl)cc(Cl)c3)(C(F)(F)F)C2)ccc1C(=O)Nc1cnn(-c2cccc(F)c2)c1 (stereo not drawn) [Compound 47]
mortality at 1 ppm [2]: 50 to 70%

COc1cccc(-n2cc(NC(=O)c3ccc(C4=NOC(c5cc(Cl)cc(Cl)c5)(C(F)(F)F)C4)cc3C)cn2)c1 (stereo not drawn) [Compound 51]
mortality at 1 ppm [2]: 50 to 70%

Cc1cc(C2=NOC(c3cc(Cl)cc(Cl)c3)(C(F)(F)F)C2)ccc1C(=O)Nc1cnn(-c2ccc(F)cc2)c1 (stereo not drawn) [Compound 52]
mortality at 1 ppm [2]: 50 to 70%

CC(=O)n1cc(NC(=O)c2ccc(C3=NOC(c4cc(Cl)cc(Cl)c4)(C(F)(F)F)C3)cc2C)cn1 (stereo not drawn) [Compound 58]
mortality at 1 ppm [2]: 50 to 70%

CCC(=O)n1cc(NC(=O)c2ccc(C3=NOC(c4cc(Cl)cc(Cl)c4)(C(F)(F)F)C3)cc2C)cn1 (stereo not drawn) [Compound 59]
mortality at 1 ppm [2]: 50 to 70%

CCCC(=O)n1cc(NC(=O)c2ccc(C3=NOC(c4cc(Cl)cc(Cl)c4)(C(F)(F)F)C3)cc2C)cn1 (stereo not drawn) [Compound 60]
mortality at 1 ppm [2]: 50 to 70%

Cc1cc(C2=NOC(c3cc(Cl)cc(Cl)c3)(C(F)(F)F)C2)ccc1C(=O)Nc1cnn(C(=O)C2CCC2)c1 (stereo not drawn) [Compound 64]
mortality at 1 ppm [2]: 50 to 70%

Cc1cc(C2=NOC(c3cc(Cl)cc(Cl)c3)(C(F)(F)F)C2)ccc1C(=O)Nc1cnn(C(=O)N(C)C)c1 (stereo not drawn) [Compound 67]
mortality at 1 ppm [2]: 90 to 100%

CCN(CC)C(=O)n1cc(NC(=O)c2ccc(C3=NOC(c4cc(Cl)cc(Cl)c4)(C(F)(F)F)C3)cc2C)cn1 (stereo not drawn) [Compound 68]
mortality at 1 ppm [2]: 50 to 70%

Cc1cc(C2=NOC(c3cc(Cl)cc(Cl)c3)(C(F)(F)F)C2)ccc1C(=O)Nc1cnn(S(C)(=O)=O)c1 (stereo not drawn) [Compound 69]
mortality at 1 ppm [2]: 50 to 70%

CCCS(=O)(=O)n1cc(NC(=O)c2ccc(C3=NOC(c4cc(Cl)cc(Cl)c4)(C(F)(F)F)C3)cc2C)cn1 (stereo not drawn) [Compound 71]
mortality at 1 ppm [2]: 70 to 80%

Cc1cc(C2=NOC(c3cc(Cl)cc(Cl)c3)(C(F)(F)F)C2)ccc1C(=O)Nc1cnn(S(=O)(=O)C(C)C)c1 (stereo not drawn) [Compound 72]
mortality at 1 ppm [2]: 50 to 70%

Cc1cc(C2=NOC(c3cc(Cl)cc(Cl)c3)(C(F)(F)F)C2)ccc1C(=O)Nc1cnn(S(=O)(=O)c2ccccc2)c1 (stereo not drawn) [Compound 73]
mortality at 1 ppm [2]: 50 to 70%

Cc1cc(C2=NOC(c3cc(Cl)cc(Cl)c3)(C(F)(F)F)C2)ccc1C(=O)Nc1cnn(S(=O)(=O)C2CCCCC2)c1 (stereo not drawn) [Compound 75]
mortality at 1 ppm [1]: 90 to 100%
mortality at 1 ppm [2]: 90 to 100%

CCn1nc(C)c(NC(=O)c2ccc(C3=NOC(c4cc(Cl)cc(Cl)c4)(C(F)(F)F)C3)cc2C)c1C (stereo not drawn) [Compound 97]
mortality at 1 ppm [2]: 80 to 90%

CCCn1nc(C)c(NC(=O)c2ccc(C3=NOC(c4cc(Cl)cc(Cl)c4)(C(F)(F)F)C3)cc2C)c1C (stereo not drawn) [Compound 98]
mortality at 1 ppm [2]: 50 to 70%

CCC(CC)n1nc(C)c(NC(=O)c2ccc(C3=NOC(c4cc(Cl)cc(Cl)c4)(C(F)(F)F)C3)cc2C)c1C (stereo not drawn) [Compound 102]
mortality at 1 ppm [2]: 50 to 70%

Cc1cc(C2=NOC(c3cc(Cl)cc(Cl)c3)(C(F)(F)F)C2)ccc1C(=O)Nc1c(C)nn(Cc2ccccc2)c1C (stereo not drawn) [Compound 104]
mortality at 1 ppm [2]: 50 to 70%

Cc1cc(C2=NOC(c3cc(Cl)c(F)c(Cl)c3)(C(F)(F)F)C2)ccc1C(=O)Nc1cn[nH]c1 (stereo not drawn) [Compound 123]
mortality at 1 ppm [1]: 90 to 100%
mortality at 1 ppm [2]: 100%

Cc1cc(C2=NOC(c3cc(Cl)c(F)c(Cl)c3)(C(F)(F)F)C2)ccc1C(=O)Nc1cnn(C)c1 (stereo not drawn) [Compound 124]
mortality at 1 ppm [1]: 80 to 90%
mortality at 1 ppm [2]: 100%

CCn1cc(NC(=O)c2ccc(C3=NOC(c4cc(Cl)c(F)c(Cl)c4)(C(F)(F)F)C3)cc2C)cn1 (stereo not drawn) [Compound 125]
mortality at 1 ppm [1]: 100%
mortality at 1 ppm [2]: 100%

Cc1cc(C2=NOC(c3cc(Cl)c(F)c(Cl)c3)(C(F)(F)F)C2)ccc1C(=O)Nc1cnn(C2CC2)c1 (stereo not drawn) [Compound 129]
mortality at 1 ppm [1]: 100%
mortality at 1 ppm [2]: 100%

Cc1cc(C2=NOC(c3cc(Cl)c(F)c(Cl)c3)(C(F)(F)F)C2)ccc1C(=O)Nc1cnn(C2CCC2)c1 (stereo not drawn) [Compound 130]
mortality at 1 ppm [1]: 90 to 100%
mortality at 1 ppm [2]: 100%

Cc1cc(C2=NOC(c3cc(Cl)c(F)c(Cl)c3)(C(F)(F)F)C2)ccc1C(=O)Nc1cnn(C2CCCC2)c1 (stereo not drawn) [Compound 131]
mortality at 1 ppm [1]: 80 to 90%
mortality at 1 ppm [2]: 100%

Cc1cc(C2=NOC(c3cc(Cl)c(F)c(Cl)c3)(C(F)(F)F)C2)ccc1C(=O)Nc1cnn(C2CCCCC2)c1 (stereo not drawn) [Compound 132]
mortality at 1 ppm [1]: 50 to 70%
mortality at 1 ppm [2]: 100%

Cc1cc(C2=NOC(c3cc(Cl)c(F)c(Cl)c3)(C(F)(F)F)C2)ccc1C(=O)Nc1cnn(CC2CC2)c1 (stereo not drawn) [Compound 133]
mortality at 1 ppm [1]: 80 to 90%
mortality at 1 ppm [2]: 100%

Cc1cc(C2=NOC(c3cc(Cl)c(F)c(Cl)c3)(C(F)(F)F)C2)ccc1C(=O)Nc1cnn(CC2CCC2)c1 (stereo not drawn) [Compound 134]
mortality at 1 ppm [2]: 70 to 80%

Cc1cc(C2=NOC(c3cc(Cl)c(F)c(Cl)c3)(C(F)(F)F)C2)ccc1C(=O)Nc1cnn(C2CCCCC2)c1 (stereo not drawn) [Compound 137]
mortality (1 ppm) 72 h (72 h): C (80% to less than 90%)

Cc1cc(C2=NOC(c3cc(Cl)c(F)c(Cl)c3)(C(F)(F)F)C2)ccc1C(=O)Nc1cnn(Cc2ccccc2)c1 (stereo not drawn) [Compound 139]
mortality at 1 ppm [2]: 50 to 70%

CC(=O)n1cc(NC(=O)c2ccc(C3=NOC(c4cc(Cl)c(F)c(Cl)c4)(C(F)(F)F)C3)cc2C)cn1 (stereo not drawn) [Compound 140]
mortality at 1 ppm [2]: 50 to 70%
